# Results: publication doi:10.1101/2023.06.16.545261v2 (biorxiv, 2023)
# Assays:
# [1] = molecular target: T1, SIRT7 (recombinant human SIRT7, non-tagged) (Homo sapiens, UniProt Q9NRC8); assay: fluorogenic deacylase assay; type: biochemical; details: read-out: % inhibition at 100 μM
# T1 sequence (Q9NRC8 1-400): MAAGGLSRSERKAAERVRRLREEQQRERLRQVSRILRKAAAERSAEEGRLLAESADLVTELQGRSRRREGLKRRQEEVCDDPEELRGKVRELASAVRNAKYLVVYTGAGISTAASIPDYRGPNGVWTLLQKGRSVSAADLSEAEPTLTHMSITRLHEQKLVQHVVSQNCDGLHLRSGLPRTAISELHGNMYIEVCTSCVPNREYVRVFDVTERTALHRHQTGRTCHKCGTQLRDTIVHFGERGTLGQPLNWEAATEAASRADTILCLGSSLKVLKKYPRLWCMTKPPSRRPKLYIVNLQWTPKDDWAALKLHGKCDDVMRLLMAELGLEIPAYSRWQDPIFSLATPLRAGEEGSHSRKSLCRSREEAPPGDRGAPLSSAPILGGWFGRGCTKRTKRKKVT
# [2] = molecular target: T1, SIRT7 (recombinant human SIRT7, non-tagged); assay: fluorogenic deacylase assay; type: biochemical
inhibition at 100 µM [1] [%],IC50 [2] [µM],Structure (SMILES)
26,–,CCCCCCCCCCCCNC(=S)NCCCC[C@H](NC(=O)OCc1ccccc1)C(=O)N[C@@H](C)C(=O)N[C@@H](CCCNC(=N)N)C(N)=O [compound 3]
–,44,"CCCCCCCCCCCCNC(=O)CCCCC[C@H](NC(=O)OCc1ccccc1)C(=O)N[C@H](C(=O)N[C@@H](CCC(=O)O)C(N)=O)C(C)C [compound 33, inverse amide 33]"
–,34,"CCCCCCCCCCCCNC(=S)CCCCC[C@H](NC(=O)OCc1ccccc1)C(=O)N[C@H](C(=O)N[C@@H](CCC(=O)O)C(N)=O)C(C)C [compound 34, inverse thioamide 34]"
